Test results: ChEMBL document CHEMBL5113531, “Discovery of Potent Cholinesterase Inhibition-Based Multi-Target-Directed Lead Compounds for Synaptoprotection in Alzheimer's Disease” (J Med Chem, 2022)
The source made the active and inactive calls. The rule behind the calls is not given here.

What was measured:
[1] = target: Sigma non-opioid intracellular receptor 1 (Cavia porcellus, UniProt Q60492); type: cell membranes, Brain, Membrane;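 also: radioligand displacement of [3H]-(+)-pentazocine binding to sigma1 receptor in guinea pig brain membranes, read by scintillation counting after a 120 min incubation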
Description: Displacement of [3H]-(+)-pentazocine from sigma1 receptor in guinea pig brain membrane measured after 120 mins by scintillation counting method

P2X purinoceptor 7 = target: T1, P2X purinoceptor 7 (Homo sapiens, UniProt Q99572); assay: Antagonist activity at human P2X7 receptor expressed in HEK293 cells assessed as reduction in YO-PRO-1 iodide dye uptake preincubated for 30 mins followed by YO-PRO-1 iodide addition and measured after 120 mins by fluorescence plate reader analysis; type: cell-based
T1 sequence (Q99572 whole entry): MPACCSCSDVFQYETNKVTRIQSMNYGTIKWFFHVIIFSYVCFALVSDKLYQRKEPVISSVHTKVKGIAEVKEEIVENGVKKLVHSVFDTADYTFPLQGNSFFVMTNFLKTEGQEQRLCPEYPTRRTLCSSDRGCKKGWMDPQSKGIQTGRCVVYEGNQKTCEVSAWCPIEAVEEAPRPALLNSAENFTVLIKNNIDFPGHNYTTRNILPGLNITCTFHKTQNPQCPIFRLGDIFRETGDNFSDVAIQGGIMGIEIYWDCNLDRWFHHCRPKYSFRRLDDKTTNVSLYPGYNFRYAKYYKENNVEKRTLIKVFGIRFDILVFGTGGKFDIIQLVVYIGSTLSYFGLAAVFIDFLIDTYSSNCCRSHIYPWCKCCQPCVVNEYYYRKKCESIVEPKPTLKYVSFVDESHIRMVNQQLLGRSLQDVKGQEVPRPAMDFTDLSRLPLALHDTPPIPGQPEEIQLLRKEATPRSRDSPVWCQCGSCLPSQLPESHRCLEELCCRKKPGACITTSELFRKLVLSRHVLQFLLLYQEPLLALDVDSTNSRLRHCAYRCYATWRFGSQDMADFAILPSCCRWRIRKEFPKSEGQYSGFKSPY

Cholinesterase = Cholinesterase (Homo sapiens, UniProt P06276); assay: Inhibition of human recombinant BuChe using butyrylthiocholine iodide as substrate incubated for 10 mins by DTNB reagent based Ellman's method
Acetylcholinesterase = Acetylcholinesterase (Homo sapiens, UniProt P22303); assay: Inhibition of human recombinant AChe using acetylthiocholine iodide as substrate incubated for 10 mins by DTNB reagent based Ellman's method
[2] = target: T2, Sigma intracellular receptor 2 (Rattus norvegicus, UniProt Q5U3Y7); assay: Displacement of [3H]DTG from sigma 2 receptor in rat liver membranes measured after 120 mins by scintillation counting method; type: cell membranes, Membrane
T2 sequence (Q5U3Y7 whole entry): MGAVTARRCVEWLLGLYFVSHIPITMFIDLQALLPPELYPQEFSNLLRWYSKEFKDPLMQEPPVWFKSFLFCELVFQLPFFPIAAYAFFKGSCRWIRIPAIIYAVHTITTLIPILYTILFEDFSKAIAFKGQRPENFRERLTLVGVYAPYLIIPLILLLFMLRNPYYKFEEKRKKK

[3] = target: Glutamate receptor ionotropic, NMDA 2B (Homo sapiens, UniProt Q13224); assay: Displacement of [3H]ifenprodil from recombinant human GluN2B NMDA receptor (unknown origin) expressed in dexamethasone-induced mouse L-M(TK-) cell after 120 mins by microbeta scintillation counting method; type: cell-based
[4] = Selectivity index, ratio of Ki for displacement of [3H]DTG from sigma 2 receptor in rat liver membranes to Ki for displacement of [3H]-(+)-pentazocine from sigma1 receptor in guinea pig brain membrane; type: cell membranes
[5] = Hepatotoxicity in […] cells assessed as reduction in cell viability at 10 to 80 uM measured after 24 hrs by CTG- luminescence assay; type: toxicity, cell-based; settings: human
Danio rerio [6] = species: Danio rerio; assay: Neuroprotective activity against Abeta42 induced zebrafish AD model assessed as reversal of reduction in synaptic integrity at 10 uM measured after 5 days; type: functional, organism-based; settings: time 5.0 day
SH-SY5Y [7] = assay: Neuroprotective activity in Abeta42 induced stress human SH-SY5Y cell model measured after 72 hrs by CTG luminescence assay; type: functional, cell-based
SH-SY5Y [8] = assay: Neuroprotective activity in H2O2 induced stress human SH-SY5Y cell model measured after 48 hrs by MTT assay; type: functional, cell-based
[9] = Selectivity index, ratio of Ki for displacement of [3H]-(+)-pentazocine from sigma1 receptor in guinea pig brain membrane to Ki for displacement of [3H]DTG from sigma 2 receptor in rat liver membranes; type: cell membranes
Danio rerio [10] = species: Danio rerio; assay: Neuroprotective activity against zebrafish AD model assessed as reversal of reduction in synaptic integrity at 10 uM measured after 5 days in presence of Abeta42 relative to control; type: functional; design: scale not given: the % may be the effect or the level left; settings: time 5 day
Danio rerio [11] = species: Danio rerio; assay: Neuroprotective activity against zebrafish AD model assessed as reversal of reduction in synaptic integrity at 10 uM measured after 5 days relative to control; type: functional; design: scale not given: the % may be the effect or the level left; settings: time 5 day
PC-12 [12] = assay: Neuroprotective activity in […] PC-12 cells assessed as induction of NGF-mediated neurite sprouting measured after 4 days by measuring fold change; type: functional, Rattus norvegicus; settings: time 4 day
SH-SY5Y [13] = assay: Glio-protective activity in H2O2 induced human SH-SY5Y cells measured after 48 hrs by MTT assay; type: functional, cell-based
SH-SY5Y [14] = assay: Glio-protective activity in Abeta42 induced stress human SH-SY5Y cells measured after 72 hrs by CTG luminescence assay; type: functional, cell-based
[15] = Permeability of the compound at pH 6.8 by HDM-PAMPA assay; type: ADME; settings: read-out: permeability
[16] = Permeability of the compound across blood brain barrier at pH 7.4 incubated for 16 hrs by PAMPA assay; type: ADME; settings: read-out: permeability
[17] = Cytotoxicity against HEK293 cells assessed as reduction in cell viability at 10 to 80 uM measured after 24 hrs by CTG- luminescence assay; type: toxicity, cell-based; settings: human
Danio rerio [18] = species: Danio rerio; assay: Anti-neuroinflammatory activity in Abeta42 induced zebrafish AD model assessed as reduction in number of activated microglia relative to control; type: functional; design: scale not given: the % may be the effect or the level left
PC-12 [19] = assay: Neuroprotective activity in […] PC-12 cells assessed as induction of NGF-mediated neurite outgrowth measured after 4 days by measuring fold change; type: functional, Rattus norvegicus; settings: time 4 day
Cytochrome P450 3A4 = Cytochrome P450 3A4 (Homo sapiens, UniProt P08684); assay: Inhibition of CYP3A4 (unknown origin) preincubated for 10 mins followed by NADP addition measured after 50 mins; type: ADME
Cytochrome P450 2C9 = Cytochrome P450 2C9 (Homo sapiens, UniProt P11712); assay: Inhibition of CYP2C9 (unknown origin) preincubated for 10 mins followed by NADP addition measured after 50 mins; type: ADME
Cytochrome P450 2D6 = Cytochrome P450 2D6 (Homo sapiens, UniProt P10635); assay: Inhibition of CYP2D6 (unknown origin) preincubated for 10 mins followed by NADP addition measured after 50 mins; type: ADME
Chain of Cytochrome P450 2D6 (P10635 whole entry): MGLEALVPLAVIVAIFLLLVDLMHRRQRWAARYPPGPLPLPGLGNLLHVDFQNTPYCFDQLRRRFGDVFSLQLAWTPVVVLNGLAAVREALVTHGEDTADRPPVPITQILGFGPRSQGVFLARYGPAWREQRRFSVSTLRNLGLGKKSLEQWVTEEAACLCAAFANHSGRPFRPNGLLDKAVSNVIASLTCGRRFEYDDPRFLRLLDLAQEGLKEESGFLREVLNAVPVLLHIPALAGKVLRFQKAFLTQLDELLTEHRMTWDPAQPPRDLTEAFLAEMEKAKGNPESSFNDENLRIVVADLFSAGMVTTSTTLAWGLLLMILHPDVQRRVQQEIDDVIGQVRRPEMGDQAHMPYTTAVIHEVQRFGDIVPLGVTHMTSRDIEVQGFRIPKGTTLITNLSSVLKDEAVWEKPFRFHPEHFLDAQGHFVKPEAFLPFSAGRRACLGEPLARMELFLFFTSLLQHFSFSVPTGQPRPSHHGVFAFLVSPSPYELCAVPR

Chain of Acetylcholinesterase (P22303 whole entry): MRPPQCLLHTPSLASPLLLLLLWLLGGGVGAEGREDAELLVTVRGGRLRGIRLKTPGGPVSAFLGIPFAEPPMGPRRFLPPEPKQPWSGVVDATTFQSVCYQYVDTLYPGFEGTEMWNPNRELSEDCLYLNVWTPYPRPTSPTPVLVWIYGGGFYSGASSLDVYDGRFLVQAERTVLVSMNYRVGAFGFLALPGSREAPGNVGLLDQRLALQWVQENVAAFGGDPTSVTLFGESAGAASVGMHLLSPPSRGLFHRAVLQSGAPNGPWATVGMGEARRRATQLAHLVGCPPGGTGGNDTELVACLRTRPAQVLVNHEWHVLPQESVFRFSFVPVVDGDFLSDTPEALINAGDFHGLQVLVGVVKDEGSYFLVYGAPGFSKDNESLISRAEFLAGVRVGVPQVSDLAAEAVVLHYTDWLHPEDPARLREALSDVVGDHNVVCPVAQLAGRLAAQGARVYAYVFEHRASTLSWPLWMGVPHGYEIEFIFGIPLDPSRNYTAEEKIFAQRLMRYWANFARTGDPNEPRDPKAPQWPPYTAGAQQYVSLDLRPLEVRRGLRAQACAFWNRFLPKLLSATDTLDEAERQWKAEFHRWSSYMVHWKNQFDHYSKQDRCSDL
Chain of Glutamate receptor ionotropic, NMDA 2B (Q13224 whole entry): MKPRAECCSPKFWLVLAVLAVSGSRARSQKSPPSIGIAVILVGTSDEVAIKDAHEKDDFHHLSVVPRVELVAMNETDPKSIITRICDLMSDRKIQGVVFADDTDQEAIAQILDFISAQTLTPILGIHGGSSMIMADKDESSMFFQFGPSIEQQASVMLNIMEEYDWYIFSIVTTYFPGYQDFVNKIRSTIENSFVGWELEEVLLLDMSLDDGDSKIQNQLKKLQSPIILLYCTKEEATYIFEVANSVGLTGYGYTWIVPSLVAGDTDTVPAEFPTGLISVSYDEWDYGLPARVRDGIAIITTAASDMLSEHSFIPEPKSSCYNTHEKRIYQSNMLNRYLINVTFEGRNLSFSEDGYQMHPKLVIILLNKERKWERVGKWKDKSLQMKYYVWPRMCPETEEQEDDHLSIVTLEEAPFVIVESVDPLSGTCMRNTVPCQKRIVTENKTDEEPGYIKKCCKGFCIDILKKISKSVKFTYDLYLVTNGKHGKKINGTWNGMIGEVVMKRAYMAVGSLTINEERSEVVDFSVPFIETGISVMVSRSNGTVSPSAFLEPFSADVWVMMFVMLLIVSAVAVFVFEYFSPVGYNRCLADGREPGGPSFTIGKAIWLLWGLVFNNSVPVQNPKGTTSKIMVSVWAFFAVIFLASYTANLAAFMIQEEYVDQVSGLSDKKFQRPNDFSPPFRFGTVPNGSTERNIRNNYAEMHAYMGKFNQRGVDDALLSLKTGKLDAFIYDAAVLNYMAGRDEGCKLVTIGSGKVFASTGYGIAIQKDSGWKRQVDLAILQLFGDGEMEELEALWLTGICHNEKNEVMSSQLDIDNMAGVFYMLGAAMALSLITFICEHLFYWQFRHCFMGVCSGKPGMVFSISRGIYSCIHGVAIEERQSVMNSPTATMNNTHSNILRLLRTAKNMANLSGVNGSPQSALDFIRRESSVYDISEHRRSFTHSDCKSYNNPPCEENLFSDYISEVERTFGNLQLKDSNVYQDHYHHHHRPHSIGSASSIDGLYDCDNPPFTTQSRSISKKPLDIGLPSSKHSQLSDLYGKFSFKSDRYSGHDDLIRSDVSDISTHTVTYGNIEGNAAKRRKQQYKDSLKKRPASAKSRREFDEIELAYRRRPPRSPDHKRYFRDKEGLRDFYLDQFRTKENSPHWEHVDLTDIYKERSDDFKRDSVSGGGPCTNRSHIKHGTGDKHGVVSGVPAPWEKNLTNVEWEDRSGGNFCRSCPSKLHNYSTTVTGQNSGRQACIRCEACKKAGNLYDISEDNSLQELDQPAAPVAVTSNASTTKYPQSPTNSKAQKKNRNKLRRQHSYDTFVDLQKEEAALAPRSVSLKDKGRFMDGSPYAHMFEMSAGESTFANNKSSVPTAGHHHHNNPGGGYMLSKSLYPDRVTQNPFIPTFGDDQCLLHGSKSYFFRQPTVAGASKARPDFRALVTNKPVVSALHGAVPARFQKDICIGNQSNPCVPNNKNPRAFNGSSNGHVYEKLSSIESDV
Chain of Sigma non-opioid intracellular receptor 1 (Q60492 whole entry): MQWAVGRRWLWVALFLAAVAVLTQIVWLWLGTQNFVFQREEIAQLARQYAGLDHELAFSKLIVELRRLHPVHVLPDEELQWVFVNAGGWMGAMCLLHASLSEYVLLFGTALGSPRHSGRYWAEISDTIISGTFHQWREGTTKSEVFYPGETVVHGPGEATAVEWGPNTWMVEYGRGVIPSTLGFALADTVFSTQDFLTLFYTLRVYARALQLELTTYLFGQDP
Chain of Cholinesterase (P06276 whole entry): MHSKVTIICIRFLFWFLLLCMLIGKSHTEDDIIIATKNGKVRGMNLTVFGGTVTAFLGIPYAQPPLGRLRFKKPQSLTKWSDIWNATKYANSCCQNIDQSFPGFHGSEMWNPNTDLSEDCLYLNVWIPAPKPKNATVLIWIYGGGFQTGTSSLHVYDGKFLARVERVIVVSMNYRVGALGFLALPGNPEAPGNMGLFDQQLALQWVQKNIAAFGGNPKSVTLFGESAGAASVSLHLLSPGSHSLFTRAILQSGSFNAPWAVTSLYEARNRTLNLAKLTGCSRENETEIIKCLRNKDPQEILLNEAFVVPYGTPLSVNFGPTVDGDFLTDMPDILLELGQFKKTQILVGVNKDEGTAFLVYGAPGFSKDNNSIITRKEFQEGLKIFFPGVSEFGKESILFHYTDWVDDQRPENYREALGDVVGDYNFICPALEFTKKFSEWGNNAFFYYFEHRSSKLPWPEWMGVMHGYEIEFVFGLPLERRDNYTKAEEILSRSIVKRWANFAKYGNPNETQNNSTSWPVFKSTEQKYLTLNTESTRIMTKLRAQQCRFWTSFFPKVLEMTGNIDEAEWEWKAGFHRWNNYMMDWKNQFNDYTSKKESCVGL
Chain of Cytochrome P450 3A4 (P08684 whole entry): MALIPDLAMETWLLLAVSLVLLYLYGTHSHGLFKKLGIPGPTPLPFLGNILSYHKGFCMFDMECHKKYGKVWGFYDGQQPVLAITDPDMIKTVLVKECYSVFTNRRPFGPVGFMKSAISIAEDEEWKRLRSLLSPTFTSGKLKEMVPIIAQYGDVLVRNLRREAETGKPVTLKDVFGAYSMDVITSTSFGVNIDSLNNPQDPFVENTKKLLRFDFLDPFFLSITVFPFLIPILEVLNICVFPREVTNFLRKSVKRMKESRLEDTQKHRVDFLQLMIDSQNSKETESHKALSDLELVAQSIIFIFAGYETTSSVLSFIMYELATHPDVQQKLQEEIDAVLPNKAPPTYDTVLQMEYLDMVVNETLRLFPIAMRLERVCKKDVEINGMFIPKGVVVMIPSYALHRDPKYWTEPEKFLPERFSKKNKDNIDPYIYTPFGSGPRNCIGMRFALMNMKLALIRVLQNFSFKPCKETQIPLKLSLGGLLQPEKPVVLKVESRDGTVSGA
Chain of Cytochrome P450 2C9 (P11712 whole entry): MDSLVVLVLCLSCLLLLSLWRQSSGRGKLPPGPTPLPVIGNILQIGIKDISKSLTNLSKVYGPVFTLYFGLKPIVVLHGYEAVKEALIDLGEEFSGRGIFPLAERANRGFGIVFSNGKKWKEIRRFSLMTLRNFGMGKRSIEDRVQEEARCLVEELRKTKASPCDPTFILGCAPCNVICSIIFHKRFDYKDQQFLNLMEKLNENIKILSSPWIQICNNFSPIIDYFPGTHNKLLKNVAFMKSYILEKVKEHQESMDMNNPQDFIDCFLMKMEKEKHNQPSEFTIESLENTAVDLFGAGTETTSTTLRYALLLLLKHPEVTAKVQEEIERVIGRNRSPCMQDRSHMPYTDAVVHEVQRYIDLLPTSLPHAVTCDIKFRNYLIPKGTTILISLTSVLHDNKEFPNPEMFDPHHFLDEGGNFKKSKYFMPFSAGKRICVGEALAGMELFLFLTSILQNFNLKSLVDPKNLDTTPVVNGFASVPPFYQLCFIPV

Row | Structure (SMILES) | Ki [1] [nM] | IC50 (Cholinesterase) [µM] | IC50 (Acetylcholinesterase) [µM] | Ki [2] [nM] | Ki [3] [nM] | Ratio Ki [4] | other results
1 | Cc1cccc2sc(NC(=O)CCN3CCN(CCN(C)C)CC3)nc12 | 1000 | > 40 | 0.48 | > 1000 | > 1000 | – | IC50 (P2X purinoceptor 7): 2150 nM
2 | Cc1cccc2sc(NC(=O)CCN3CCN(Cc4cc(F)ccc4F)CC3)nc12 | 1000 | 7.66 | 12.6 | > 1000 | > 1000 | – | –
3 | Cc1cccc2sc(NC(=O)CCN3CCN(C(C)(C)C)CC3)nc12 | 147 | > 40 | 0.81 | 200 | 476 | 1.36 | –
4 | CCOCCN1CCN(CCC(=O)Nc2nc3c(C)cccc3s2)CC1 | 575 | 39 | 20.1 | 1600 | > 1000 | 2.78 | –
5 | Cc1cccc2sc(NC(=O)CCN3CCN(CC4CCCCC4)CC3)nc12 | 35 | 7.65 | 0.34 | 519 | 60 | 14.8 | IC50 at 24 h [5]: 30.7 µM; Activity (Danio rerio [6]): Active; Activity (SH-SY5Y [7]): Active; Activity (SH-SY5Y [8]): Active
6 | Cc1cccc2sc(NC(=O)CCN3CCN(c4ncccn4)CC3)nc12 | 505 | > 40 | 30 | > 1000 | > 1000 | > 1.98 | IC50 (P2X purinoceptor 7): 1330 nM
7 | Cc1cccc2sc(NC(=O)CCN3CCN(C4CCN(C)CC4)CC3)nc12 | 6000 | > 40 | 10.5 | 3600 | > 1000 | – | Ratio Ki [9]: 1.66
8 | Cc1cccc2sc(NC(=O)CCN3CCN(Cc4cccc5ccccc45)CC3)nc12 | 1000 | 32.9 | 19.3 | > 1000 | > 1000 | – | –
9 | Cc1cccc2sc(NC(=O)CCN3CCN(Cc4ccccc4F)CC3)nc12 | 1700 | 2.9 | 5.22 | > 1000 | > 1000 | – | –
10 | CC(=O)c1ccc(N2CCN(CCC(=O)Nc3nc4c(C)cccc4s3)CC2)cc1 | 1000 | 3.04 | 3.82 | > 1000 | 187 | – | –
11 | CCN1CCN(CCC(=O)Nc2nc3c(C)cccc3s2)CC1 | 543 | > 40 | 20.6 | 1200 | > 1000 | 2.21 | –
12 | Cc1cccc2sc(NC(=O)CCN3CCN(c4ccccn4)CC3)nc12 | 1000 | > 40 | 17.2 | > 1000 | > 1000 | – | IC50 (P2X purinoceptor 7): 1400 nM
13 | Cc1cccc2sc(NC(=O)CCN3CCN(CCN(C(C)C)C(C)C)CC3)nc12 | 809 | > 40 | 0.24 | 121 | 202 | – | Activity (Danio rerio [6]): Active; Activity (Danio rerio [10]): 37.1%; Activity (Danio rerio [11]): 15.1%; Ratio Ki [9]: 6.68; fold change (FC) (PC-12 [12]): 3.7; Activity (SH-SY5Y [7]): Active; Activity (SH-SY5Y [8]): Active
14 | CCCCN1CCN(CCC(=O)Nc2nc3c(C)cccc3s2)CC1 | 204 | 30.1 | > 40 | 1200 | 229 | 5.88 | –
15 | Cc1cccc2sc(NC(=O)CCN3CCN(Cc4ccc(C(C)(C)C)cc4)CC3)nc12 | 238 | 9.32 | 40 | 238 | > 1000 | – | –
16 | Cc1cccc2sc(NC(=O)CCN3CCN(C4CCCCC4)CC3)nc12 | 24 | 3.19 | 10.9 | 233 | 213 | 9.71 | IC50 at 24 h [5]: 47.1 µM; Activity (Danio rerio [6]): Active; Activity (SH-SY5Y [13]): Active; Activity (SH-SY5Y [14]): Active
17 | Cc1ccccc1N1CCN(CCC(=O)Nc2nc3c(C)cccc3s2)CC1 | 1000 | 8.63 | > 40 | > 1000 | > 1000 | – | –
18 | Cc1cccc2sc(NC(=O)CCN3CCN(CCCN(C)C)CC3)nc12 | 570 | > 40 | 0.41 | > 1000 | 1800 | > 1.75 | Papp [15]: 4.5 ×10⁻⁶ cm/s; Activity (Danio rerio [6]): Active; Papp at 16 h [16]: 4 ×10⁻⁶ cm/s; IC50 at 24 h [17]: 20.5 µM; IC50 (P2X purinoceptor 7): 18100 nM; Activity (Danio rerio [18]): 33.1%; Activity (SH-SY5Y [7]): Active; Activity (SH-SY5Y [8]): Active
19 | CCCCCCN1CCN(CCC(=O)Nc2nc3c(C)cccc3s2)CC1 | 238 | 29.3 | > 40 | 158 | 115 | – | Activity (SH-SY5Y [13]): Active; Ratio Ki [9]: 1.5; Activity (SH-SY5Y [14]): Active
20 | COc1cc2c(cc1OC)C(=O)C(CC1CCN(Cc3ccccc3)CC1)C2 (stereo not given) [DONEPEZIL] | – | – | – | – | – | – | Activity (Danio rerio [18]): 4.3%
21 | Cc1cccc2sc(NC(=O)CCN3CCN(CC4CCCO4)CC3)nc12 (racemic) | 109 | 12.8 | 7.91 | 5000 | 457 | 45.9 | IC50 at 24 h [5]: 46.3 µM; Activity (Danio rerio [6]): Active; Activity (SH-SY5Y [7]): Active; fold change (FC) (PC-12 [19]): 2.4; Activity (SH-SY5Y [8]): Active
22 | Cc1cccc2sc(NC(=O)CCN3CCN(c4ccncc4)CC3)nc12 | 9600 | > 40 | 18.2 | 1700 | 184 | – | IC50 (Cytochrome P450 3A4): 1140 nM; Activity (Danio rerio [6]): Active; Ratio Ki [9]: 5.65; IC50 (P2X purinoceptor 7): 1130 nM; IC50 (Cytochrome P450 2C9): 2460 nM; Activity (Danio rerio [18]): 25.9%; Activity (SH-SY5Y [7]): Active; IC50 (Cytochrome P450 2D6): 13.6 µM; Activity (SH-SY5Y [8]): Active
23 | Cc1cccc2sc(NC(=O)CCN3CCN(C(C)C)CC3)nc12 | 1300 | 14.4 | 2.75 | 1800 | > 1000 | 1.38 | –
